Consider 10 compounds from patent US11124519B2, “Cocrystal forms of ((1S,2S,4R)-4-{4-[(1S)-2,3-dihydro-1H-inden-1-ylamino]-7H-pyrrolo [2,3-d]pyrimidin-7-yl}-2-hydroxycyclopentyl) methyl sulfamate, formulations and uses thereof” (Millennium Pharmaceuticals, Inc., priority 2017, dated 2021).

A short description of data set [1]: Chemical stability under temperature/humidity stress, HPLC purity at t=0 and t=14 days. The conditions noted are these: for Purity after 60° C./75% RH, 2 weeks / Purity after 60° C./ambient RH, 2 weeks: HPLC; for Chemical stability under the stressed conditions (in words): 60° C./ambient RH and 60° C./75% RH; for Purity after 60° C./75% RH, 2 weeks / Chemical stability under the stressed conditions (in words) / Purity after 60° C./ambient RH, 2 weeks: 2 weeks; for Purity T = 0: unstressed, t=0, HPLC.
Experimental: (§1) High Performance Liquid Chromatography (HPLC): HPLC analyses were performed using an Agilent 1100 series liquid chromatograph equipped with a variable wavelength detector and binary pump for sequence file 552094, and a diode array detector and quaternary pump for the remaining sequences. […] Degasser and an autosampler (set to ˜5° C.) were equipped for all sequences. The chromatographic column was a 150×4.6 mm Aquasil C18 column with 3 μm packing (Thermo Scientific). The column temperature was set to 40° C., and the detector wavelength was 280 nm with a bandwidth of 8 nm. The injection volume was 15 μL. Mobile phase A was 0.1% TFA in Water, and mobile phase B was 0.1% TFA in Acetonitrile. The flow rate used was 0.5 L/minute. Mobile phases were filtered and degassed through a 0.45 μm nylon filter under vacuum prior to use, except for Mobile phase A used in sequence file 554410 due to time constraints.
(§2) The physical and chemical stability of the glycolic acid, hippuric acid, malonic acid, and saccharin cocrystals were evaluated at two stress conditions (60° C./ambient relative humidity and 60° C./75% relative humidity) and compared to MLN4924 HCl salt.
(§3) Chemical stability was assessed via HPLC analysis of samples at t=0 and t=14 days.

The nature of data set [2]: Physical stability on exposure to elevated relative humidity (deliquescence). The format is physicochemical. As to conditions: RT. An excerpt: Each cocrystal was also exposed to elevated relative humidity (first ˜75% RH, then ˜97% RH) for specified time periods (Table 20).
Data set [3] is described as follows: Aqueous solubility estimate in water by solvent addition method. The conditions noted are these: for Solubility Estimate: solvent addition method, visual assessment, rounded to nearest whole number.
The conditions of data set [4]: 2 weeks.
Experimental: as §1, §2, §3
A short description of another data set: physchem. As to conditions: water, thermodynamic from solid.
The conditions of data set [5]: cited from earlier work.
Data set [6] in a line: Physical stability under temperature/humidity stress, XRPD comparison of unstressed and stressed samples. The format is physicochemical. As to conditions: 60° C./75% RH, 2 weeks; listed as MLN4924-HCl. As for the experimental part: Physical stability was assessed by comparison of XRPD patterns of the unstressed and stressed samples.
[7] abbreviates: listed as Glycolic acid (Form A).
[8] abbreviates: listed as Hippuric acid (Form B).
[9] abbreviates: listed as Malonic acid (Form M).

Entries after “also recorded” stand apart in the source; their conditions may differ. Where a name gives a salt, the structure may show the parent alone. Read-outs that look alike come from different tables or passages of the source. Marks after values point to notes of the source that are not given here. Some results are limits rather than exact numbers.

With `NS(=O)(=O)OC[C@@H]1C[C@@H](n2ccc3c(N[C@H]4CCc5ccccc54)ncnc32)C[C@@H]1O` [Form A, ((1S,2S,4R)-4-{4-[(1S)-2,3-dihydro-1H-inden-1-ylamino]-7H-pyrrolo[2,3-d]pyrimidin-7-yl}-2-hydroxycyclopentyl)methyl sulfamate], in data set [1] (setting [7]), the “Purity after 60° C./75% RH, 2 weeks” value was 93.0%; the “Purity after 60° C./ambient RH, 2 weeks” value stood at 95.9%; the “Purity T = 0” value came to 96.9%. Further, the “Chemical stability under the stressed conditions (in words)” value (from here on “Chemical stability … (in words)”) in data set [1] (listed as glycolic acid cocrystal) was “limited stability”. For the same compound, in data set [2] (~75% RH stress, ~3 days), the “Observations After Stress” value is reported as “Free flowing solids”. Also, in data set [2] (~97% RH stress, ~2 days), the “Observations After Stress” value is reported as “Free flowing solids”. In addition, the “Solubility Estimate” value in data set [3] is listed as <1^c mg/mL.
`NS(=O)(=O)OC[C@@H]1C[C@@H](n2ccc3c(N[C@H]4CCc5ccccc54)ncnc32)C[C@@H]1O` [Form B, ((1S,2S,4R)-4-{4-[(1S)-2,3-dihydro-1H-inden-1-ylamino]-7H-pyrrolo[2,3-d]pyrimidin-7-yl}-2-hydroxycyclopentyl)methyl sulfamate]: in data set [1] (setting [8]), the “Purity after 60° C./75% RH, 2 weeks” value is recorded as 93.9%; the “Purity after 60° C./ambient RH, 2 weeks” value came out at 94.1%; the “Purity T = 0” value was 94.4%. In data set [1] (listed as hippuric acid cocrystal), the “Chemical stability … (in words)” value is reported as “little decomposition; also recorded: improvement in stability over the current MLN4924 HCl form”. In data set [2] (~75% RH stress, ~3 days), the “Observations After Stress” value is “Free flowing solids”. The “Observations After Stress” value in data set [2] (~97% RH stress, ~2 days) is “Free flowing solids”. Besides, the “Solubility Estimate” value in data set [3] is <1 mg/mL.
For the compound `NS(=O)(=O)OC[C@@H]1C[C@@H](n2ccc3c(N[C@H]4CCc5ccccc54)ncnc32)C[C@@H]1O` [Form F, ((1S,2S,4R)-4-{4-[(1S)-2,3-dihydro-1H-inden-1-ylamino]-7H-pyrrolo[2,3-d]pyrimidin-7-yl}-2-hydroxycyclopentyl)methyl sulfamate], the “Chemical stability … (in words)” value in data set [4] is given as “improvement in stability over the current MLN4924 HCl form”. Further, in data set [1] (listed as Saccharin (Form F)), the “Purity after 60° C./75% RH, 2 weeks” value is reported as 91.0%; the “Purity after 60° C./ambient RH, 2 weeks” value is on record as 91.2%; the “Purity T = 0” value is 91.2%. Moreover, in data set [1] (listed as saccharin cocrystal), the “Purity T = 0” value is on record as “about 91%”. Also, the “Observations After Stress” value in data set [2] (~75% RH stress, ~3 days) was “Free flowing solids”. In data set [2] (~97% RH stress, ~2 days), the “Observations After Stress” value is “Free flowing solids”.
`NS(=O)(=O)OC[C@@H]1C[C@@H](n2ccc3c(N[C@H]4CCc5ccccc54)ncnc32)C[C@@H]1O` [Form G, ((1S,2S,4R)-4-{4-[(1S)-2,3-dihydro-1H-inden-1-ylamino]-7H-pyrrolo[2,3-d]pyrimidin-7-yl}-2-hydroxycyclopentyl)methyl sulfamate]: the “Observations After Stress” value is given as “Free flowing solids” in data set [2] (~75% RH stress, ~3 days); “Slightly tacky solids” in data set [2] (~97% RH stress, ~2 days); “slightly tacky” in data set [2] (~97% RH stress, ~2 days, listed as solvated piperazine cocrystal).
In the case of `NS(=O)(=O)OC[C@@H]1C[C@@H](n2ccc3c(N[C@H]4CCc5ccccc54)ncnc32)C[C@@H]1O` [Form H, ((1S,2S,4R)-4-{4-[(1S)-2,3-dihydro-1H-inden-1-ylamino]-7H-pyrrolo[2,3-d]pyrimidin-7-yl}-2-hydroxycyclopentyl)methyl sulfamate], the “Observations After Stress” value in data set [2] (~75% RH stress, ~3 days) is reported as “Free flowing solids”; in data set [2] (~97% RH stress, ~2 days), “Free flowing solids”. Also, in “physchem”, the solubility (commonly the dissolved amount per volume that the medium holds) was < 1000 µg/mL.
Turning to `NS(=O)(=O)OC[C@@H]1C[C@@H](n2ccc3c(N[C@H]4CCc5ccccc54)ncnc32)C[C@@H]1O` [Form J, ((1S,2S,4R)-4-{4-[(1S)-2,3-dihydro-1H-inden-1-ylamino]-7H-pyrrolo[2,3-d]pyrimidin-7-yl}-2-hydroxycyclopentyl)methyl sulfamate], the “Observations After Stress” value in data set [2] (~75% RH stress, ~3 days) was “Free flowing solids”; in data set [2] (~97% RH stress, ~2 days), “Free flowing solids”.
`NS(=O)(=O)OC[C@@H]1C[C@@H](n2ccc3c(N[C@H]4CCc5ccccc54)ncnc32)C[C@@H]1O` [Form L, ((1S,2S,4R)-4-{4-[(1S)-2,3-dihydro-1H-inden-1-ylamino]-7H-pyrrolo[2,3-d]pyrimidin-7-yl}-2-hydroxycyclopentyl)methyl sulfamate]: the “Observations After Stress” value in data set [2] (~75% RH stress, ~4 days) is “Free flowing solids”; in data set [2] (~97% RH stress, ~1 day), “Free flowing solids”.
As to `NS(=O)(=O)OC[C@@H]1C[C@@H](n2ccc3c(N[C@H]4CCc5ccccc54)ncnc32)C[C@@H]1O` [Form M, ((1S,2S,4R)-4-{4-[(1S)-2,3-dihydro-1H-inden-1-ylamino]-7H-pyrrolo[2,3-d]pyrimidin-7-yl}-2-hydroxycyclopentyl)methyl sulfamate], in data set [1] (setting [9]), the “Purity after 60° C./75% RH, 2 weeks” value was 99.0%; the “Purity after 60° C./ambient RH, 2 weeks” value turned out to be 99.1%; the “Purity T = 0” value was 99.0%. In data set [1] (listed as malonic acid), the “Chemical stability … (in words)” value is “highest final purity” and the “Purity T = 0” value is “highest initial purity”. Besides, the “Chemical stability … (in words)” value in data set [1] (listed as malonic acid cocrystal) is reported as “little decomposition; also recorded: improvement in stability over the current MLN4924 HCl form”. Besides, the “Observations After Stress” value in data set [2] (~75% RH stress, ~4 days) is on record as “Free flowing solids”. In data set [2] (~97% RH stress, ~1 day), the “Observations After Stress” value was “Free flowing solids”. Besides, in data set [3] (thermodynamic from solid), the solubility is < 1000 µg/mL.
`NS(=O)(=O)OC[C@@H]1C[C@@H](n2ccc3c(N[C@H]4CCc5ccccc54)ncnc32)C[C@@H]1O` [Form N, ((1S,2S,4R)-4-{4-[(1S)-2,3-dihydro-1H-inden-1-ylamino]-7H-pyrrolo[2,3-d]pyrimidin-7-yl}-2-hydroxycyclopentyl)methyl sulfamate]: the “Observations After Stress” value in data set [2] (~75% RH stress, ~4 days) is recorded as “Free flowing solids”; in data set [2] (~97% RH stress, ~1 day), “Free flowing solids”. Besides, the “Solubility Estimate” value in data set [3] is <1^c mg/mL.
On to `NS(=O)(=O)OC[C@@H]1C[C@@H](n2ccc3c(N[C@H]4CCc5ccccc54)ncnc32)C[C@@H]1O` [HCl, ((1S,2S,4R)-4-{4-[(1S)-2,3-dihydro-1H-inden-1-ylamino]-7H-pyrrolo[2,3-d]pyrimidin-7-yl}-2-hydroxycyclopentyl)methyl sulfamate, reference compound], for which, in data set [1], the “Purity after 60° C./75% RH, 2 weeks” value was 96.6%; the “Purity after 60° C./ambient RH, 2 weeks” value is reported as 94.6%; the “Purity T = 0” value is reported as 98.2%. In addition, the “Chemical stability … (in words)” value in data set [1] (listed as MLN4924-HCl) is given as “limited stability”. Moreover, in data set [5], the “Chemical stability during accelerated stress condition” value was “limited chemical stability”. Also, the “Form change (XRPD)” value in data set [6] was “new unique crystalline XRPD pattern”.
